Assay results as given in patent publication US7456167B2, “Cyclopropyl fused indolobenzazepine HCV NS5B inhibitors” (Bristol-Myers Squibb Company, priority 2006, dated 2008).
Like-named read-outs stand apart in the source and are kept apart here.

Assays:
[1] = biological target: T1, HCV NS5B RdRp genotype 1b (Hepatitis C virus genotype 1b, UniProt Q9WMX2); experiment: Modified HCV NS5B RdRp enzyme assay (preincubation protocol); format: biochemical
T1 construct: The protein was expressed with an 18 amino acid C-terminal truncation to enhance the solubility; made in house; host or cells: E. coli BL21(DE3)
T1 sequence (Q9WMX2 2420-2992): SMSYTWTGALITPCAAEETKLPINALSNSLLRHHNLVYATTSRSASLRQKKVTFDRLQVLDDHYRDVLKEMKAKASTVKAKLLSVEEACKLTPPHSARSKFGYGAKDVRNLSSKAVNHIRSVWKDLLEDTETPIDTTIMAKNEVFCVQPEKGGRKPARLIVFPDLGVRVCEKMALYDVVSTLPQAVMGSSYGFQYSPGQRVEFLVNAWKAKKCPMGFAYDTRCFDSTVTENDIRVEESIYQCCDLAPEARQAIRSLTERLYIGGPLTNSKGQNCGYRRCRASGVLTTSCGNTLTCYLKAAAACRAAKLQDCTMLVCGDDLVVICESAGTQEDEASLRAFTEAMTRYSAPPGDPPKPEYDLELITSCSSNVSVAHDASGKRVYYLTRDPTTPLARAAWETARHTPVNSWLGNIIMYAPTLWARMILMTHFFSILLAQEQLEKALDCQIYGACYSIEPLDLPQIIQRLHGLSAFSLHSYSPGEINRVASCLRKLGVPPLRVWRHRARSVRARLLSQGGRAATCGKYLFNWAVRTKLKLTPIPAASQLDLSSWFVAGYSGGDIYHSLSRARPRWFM
Protocol: HCV NS5B RdRp cloning, expression, and purification. The cDNA encoding the NS5B protein of HCV, genotype 1b, was cloned into the pET21a expression vector. The protein was expressed with an 18 amino acid C-terminal truncation to enhance the solubility. The E. coli competent cell line BL21(DE3) was used for expression of the protein. Cultures were grown at 37° C. for ˜4 hours until the cultures reached an optical density of 2.0 at 600 nm. The cultures were cooled to 20° C. and induced with 1 mM IPTG. Fresh ampicillin was added to a final concentration of 50 μg/ml and the cells were grown overnight at 20° C.
Cell pellets (3 L) were lysed for purification to yield 15-24 mgs of purified NS5B. The lysis buffer consisted of 20 mM Tris-HCl, pH 7.4, 500 mM NaCl, 0.5% triton X-100, 1 mM DTT, 1 mM EDTA, 20% glycerol, 0.5 mg/ml lysozyme, 10 mM MgCl2, 15 ug/ml deoxyribonuclease I, and Complete TM protease inhibitor tablets (Roche). After addition of the lysis buffer, frozen cell pellets were resuspended using a tissue homogenizer. To reduce the viscosity of the sample, aliquots of the lysate were sonicated on ice using a microtip attached to a Branson sonicator. The sonicated lysate was centrifuged at 100,000×g for 1 hr at 4° C. and filtered through a 0.2 μm filter unit (Corning).
The protein was purified using three sequential chromatography steps: Heparin sepharose CL-6B, polyU sepharose 4B, and Hitrap SP sepharose (Pharmacia). The chromatography buffers were identical to the lysis buffer but contained no lysozyme, deoxyribonuclease I, MgCl2 or protease inhibitor and the NaCl concentration of the buffer was adjusted according to the requirements for charging the protein onto the column. Each column was eluted with a NaCl gradient which varied in length from 5-50 column volumes depending on the column type. After the final chromatography step, the resulting purity of the enzyme is >90% based on SDS-PAGE analysis. The enzyme was aliquoted and stored at −80° C.
Standard HCV NS5B RdRp enzyme assay. HCV RdRp genotype 1b assays were run in a final volume of 60 μl in 96 well plates (Costar 3912). The assay buffer is composed of 20 mM Hepes, pH 7.5, 2.5 mM KCl, 2.5 mM MgCl2, 1 mM DTT, 1.6 U RNAse inhibitor (Promega N2515), 0.1 mg/ml BSA (Promega R3961), and 2% glycerol. All compounds were serially diluted (3-fold) in DMSO and diluted further in water such that the final concentration of DMSO in the assay was 2%. HCV RdRp genotype 1b enzyme was used at a final concentration of 28 nM. A polyA template was used at 6 nM, and a biotinylated oligo-dT12 primer was used at 180 nM final concentration. Template was obtained commercially (Amersham 27-4110). Biotinylated primer was prepared by Sigma Genosys. 3H-UTP was used at 0.6 μCi (0.29 μM total UTP). Reactions were initiated by the addition of enzyme, incubated at 30° C. for 60 min, and stopped by adding 25 μl of 50 mM EDTA containing SPA beads (4 μg/μl, Amersham RPNQ 0007). Plates were read on a Packard Top Count NXT after >1 hr incubation at room temperature.
Modified HCV NS5B RdRp enzyme assay. A modified enzyme assay was performed essentially as described for the standard enzyme assay except for the following: The biotinylated oligo dT12 primer was precaptured on streptavidin-coated SPA beads by mixing primer and beads in assay buffer and incubating at room temperature for one hour. Unbound primer was removed after centrifugation. The primer-bound beads were resuspended in 20 mM Hepes buffer, pH 7.5 and used in the assay at final concentrations of 20 nM primer and 0.67 μg/μl beads. Order of addition in the assay: enzyme (14 nM) was added to diluted compound followed by the addition of a mixture of template (0.2 nM), 3H-UTP (0.6 μCi, 0.29 μM), and primer-bound beads, to initiate the reaction; concentrations given are final. Reactions were allowed to proceed for 4 hours at 30° C.
IC50 values for compounds were determined using seven different [I]. […]

HCV replicon cells = experiment: HCV replicon FRET assay; format: cell-based; details: Hepatitis C virus
Text: FRET Assay Preparation. To perform the HCV FRET screening assay, 96-well cell culture plates were used. The FRET peptide (Anaspec, Inc.) (Taliani et al., Anal. Biochem. 1996, 240, 60-67) contains a fluorescence donor, EDANS, near one end of the peptide and an acceptor, DABCYL, near the other end. The fluorescence of the peptide is quenched by […] resonance energy transfer (RET) between the donor and the acceptor, but as the NS3 protease cleaves the peptide the products are released from RET quenching and the fluorescence of the donor becomes apparent. The assay reagent was made as follows: 5× cell Luciferase cell culture lysis reagent from Promega (#E153A) diluted to 1× with dH2O, NaCl added to 150 mM final, the FRET peptide diluted to 20 uM final from a 2 mM stock.
To prepare plates, HCV replicon cells, with or without a Renilla luciferase reporter gene, were trypsinized and placed into each well of a 96-well plate with titrated test compounds added in columns 3 through 12; columns 1 and 2 contained a control compound (HCV protease inhibitor), and the bottom row contained cells without compound. The plates were then placed in a CO2 incubator at 37° C.
Assays. Subsequent to addition of the test compounds described above (FRET Assay Preparation), at various times the plate was removed and Alamar blue solution (Trek Diagnostics, #00-100) was added per well as a measure of cellular toxicity. After reading in a Cytoflour 4000 instrument (PE Biosystems), plates were rinsed with PBS and then used for FRET assay by the addition of 30 ul of the FRET peptide assay reagent described above (FRET Assay Preparation) per well. The plate was then placed into the Cytoflour 4000 instrument which had been set to 340 excite/490 emission, automatic mode for 20 cycles and the plate read in a kinetic mode. Typically, the signal to noise using an endpoint analysis after the reads was at least three-fold. Alternatively, after Alamar blue reading, plates were rinsed with PBS, 50 ul of DMEM (high glucose) without phenol red was added and plates were then used for luciferase assay using the Promega Dual-Glo Luciferase Assay System.
Compound analysis was determined by quantification of the relative HCV replicon inhibition and the relative cytotoxicity values. To calculate cytoxicity values, the average Alamar Blue fluorescence signals from the control wells were set as 100% non-toxic. The individual signals in each of the compound test wells were then divided by the average control signal and multiplied by 100% to determine […]. To calculate the HCV replicon inhibition values, an average background value was obtained from the two wells containing the highest amount of HCV protease inhibitor at the end of the assay period. These numbers were similar to those obtained from naïve Huh-7 cells.
The background numbers were then subtracted from the average signal obtained from the control wells and this number was used as 100% activity. The individual signals in each of the compound test wells were then divided by the averaged control values after background subtraction and multiplied by 100% to determine percent activity. EC50 values for a protease inhibitor titration were calculated as the concentration which caused a 50% reduction in FRET or luciferase activity. The two numbers generated for the compound plate, percent cytoxicity and percent activity were used to determine compounds of interest for further analysis.

[2] = HCV NS5B RdRp genotype 1b, preincubation protocol, read-out: IC50
[3] = HCV replicon cells, FRET assay, read-out: EC50

Structure (SMILES)	IC50 [1, 2] [µM]	EC50 (HCV replicon cells; [3]) [µM]	IC50 [1] [µM]	EC50 (HCV replicon cells) [µM]
COc1ccc2c(c1)CC(S(=O)(=O)N1CCOCC1)Cn1c-2c(C2CCCCC2)c2ccc(C(=O)O)cc21 (stereo not shown)	0.02 to 1	0.02 to 1	–	–
CCS(=O)(=O)C1Cc2ccccc2-c2c(C3CCCCC3)c3ccc(C(=O)NS(=O)(=O)N(C)C)cc3n2C1 (stereo not shown)	0.02 to 1	0.02 to 1	–	–
COc1ccc2c(c1)C1CC1(S(=O)(=O)N1C[C@@H](C)N(C)[C@@H](C)C1)Cn1c-2c(C2CCCCC2)c2ccc(C(=O)NS(C)(=O)=O)cc21 (stereo partly shown)	0.02 to 1	0.02 to 1	–	–
COc1ccc2c(c1)C1CC1(S(=O)(=O)N1C[C@@H](C)N(C)[C@@H](C)C1)Cn1c-2c(C2CCCCC2)c2ccc(C(=O)NS(=O)(=O)N3CCOCC3)cc21 (stereo partly shown)	0.02 to 1	0.02 to 1	–	–
COc1ccc2c(c1)C1CC1(S(=O)(=O)N1CC[C@@H](N(C)C)C1)Cn1c-2c(C2CCCCC2)c2ccc(C(=O)NS(=O)(=O)C(C)C)cc21 (stereo partly shown)	0.02 to 1	0.02 to 1	–	–
COc1ccc2c(c1)C1CC1(S(=O)(=O)N1CCN3CCCC3C1)Cn1c-2c(C2CCCCC2)c2ccc(C(=O)NS(=O)(=O)C(C)C)cc21 (stereo not shown)	0.02 to 1	0.02 to 1	–	–
COc1ccc2c(c1)C1CC1(S(=O)(=O)N1C3CC1CN(C)C3)Cn1c-2c(C2CCCCC2)c2ccc(C(=O)NS(=O)(=O)C(C)C)cc21 (stereo not shown)	0.02 to 1	0.02 to 1	–	–
CCN1CC2CC1CN2S(=O)(=O)C12CC1c1cc(OC)ccc1-c1c(C3CCCCC3)c3ccc(C(=O)NS(=O)(=O)N4CCOCC4)cc3n1C2 (stereo not shown)	0.02 to 1	0.02 to 1	–	–
COc1ccc2c(c1)CC(S(=O)(=O)CCN1CCN(C)CC1)Cn1c-2c(C2CCCCC2)c2ccc(C(=O)NS(=O)(=O)N(C)C)cc21 (stereo not shown)	0.02 to 1	0.02 to 1	–	–
COc1ccc2c(c1)C1CC1(S(=O)(=O)N1CCN(S(C)(=O)=O)CC1)Cn1c-2c(C2CCCCC2)c2ccc(C(=O)O)cc21 (stereo not shown)	0.02 to 1	1 to 10	–	–
COc1ccc2c(c1)C1CC1(S(=O)(=O)N1CCN3CCCC3C1)Cn1c-2c(C2CCCCC2)c2ccc(C(=O)NS(=O)(=O)N3CCOCC3)cc21 (stereo not shown) [drawing 64]	0.02 to 1	0.02 to 1	–	–
COc1ccc2c(c1)C1CC1(S(=O)(=O)N1CCC(O)CC1)Cn1c-2c(C2CCCCC2)c2ccc(C(=O)O)cc21 (stereo not shown)	0.02 to 1	0.02 to 1	–	–
COc1ccc2c(c1)C1CC1(S(=O)(=O)N1C3CCC1CC(C)(O)C3)Cn1c-2c(C2CCCCC2)c2ccc(C(=O)NS(=O)(=O)N(C)C)cc21 (stereo not shown)	–	–	0.02 to 1	0.02 to 1
CCN(C)S(=O)(=O)NC(=O)c1ccc2c(C3CCCCC3)c3n(c2c1)CC1(S(=O)(=O)N2C[C@@H](C)N(C)[C@@H](C)C2)CC1c1cc(OC)ccc1-3 (stereo partly shown)	0.02 to 1	0.02 to 1	–	–
